Where “and” joins values, the source holds several entries; their conditions need not be identical. Equal entries are not always repeated. Inconclusive results and toxic doses are left out. The calls were made as follows: active = survival T/C of 150% or more; inactive = T/C below 125% in these data.
Test system: P388 leukemia ip, CD2F1 mice, survival T/C
Assay: NCI In Vivo Anticancer Drug Screen. Data for tumor model P388 Leukemia (intraperitoneal) in CD2F1 (CDF1) mice
Conditions: endpoint: median survival time, higher = longer survival
Procedure, shortened: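 Mice carrying the transplanted tumor received test compound or vehicle. Survival was recorded in each group, and the value is the treated-group measurement divided by that of the vehicle-treated control group.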

[1] = dose: 25.0 mg/kg/injection, schedule: Q01DX009 (ip), vehicle: Klucel (hydroxypropylcellulose) (HPC)
[2] = dose: 50.0 mg/kg/injection, schedule: Q01DX009 (ip), vehicle: Klucel (hydroxypropylcellulose) (HPC)
[3] = dose: 60.0 mg/kg/injection, schedule: Q01DX005 (ip), vehicle: saline with Tween-80
[4] = dose: 120.0 mg/kg/injection, schedule: Q01DX005 (ip), vehicle: saline with Tween-80
[5] = dose: 60.0 mg/kg/injection, schedule: Q01DX005 (ip), vehicle: Klucel (hydroxypropylcellulose) (HPC)
[6] = dose: 120.0 mg/kg/injection, schedule: Q01DX005 (ip), vehicle: Klucel (hydroxypropylcellulose) (HPC)
[7] = dose: 240.0 mg/kg/injection, schedule: Q01DX005 (ip), vehicle: Klucel (hydroxypropylcellulose) (HPC)
[8] = dose: 100.0 mg/kg/injection, schedule: Q01DX009 (ip), vehicle: Klucel (hydroxypropylcellulose) (HPC)
[9] = dose: 200.0 mg/kg/injection, schedule: Q01DX009 (ip), vehicle: Klucel (hydroxypropylcellulose) (HPC)

Measured: T/C

O=C(NC1CCCCC1NC(=O)C12CC3CC(CC(C3)C1)C2)C12CC3CC(CC(C3)C1)C2 (centres undefined)
inactive: dose: 6.0 mg/kg/injection, schedule: Q01DX005 (ip), vehicle: Klucel (hydroxypropylcellulose) (HPC) 95 % of control | dose: 12.0 mg/kg/injection, schedule: Q01DX005 (ip), vehicle: Klucel (hydroxypropylcellulose) (HPC) 88 % of control | dose: 50.0 mg/kg/injection, schedule: Q01DX005 (ip), vehicle: Klucel (hydroxypropylcellulose) (HPC) 88 % of control | dose: 200.0 mg/kg/injection, schedule: Q01DX005 (ip), vehicle: Klucel (hydroxypropylcellulose) (HPC) 92 % of control

CC(=O)OC(C(=O)OC1C[C@]2(O)C(OC(=O)c3ccccc3)C3[C@@]4(OC(C)=O)CO[C@H]4C[C@@H](OC(C)=O)[C@]3(C)C(=O)[C@@H](OC(C)=O)C(=C1C)C2(C)C)C(NC(=O)c1ccccc1)c1ccccc1 (some centres undefined)
inactive: dose: 5.0 mg/kg/injection, schedule: Q01DX009 (ip), vehicle: Klucel (hydroxypropylcellulose) (HPC) 99 % of control | dose: 10.0 mg/kg/injection, schedule: Q01DX009 (ip), vehicle: Klucel (hydroxypropylcellulose) (HPC) 105 % of control | dose: 20.0 mg/kg/injection, schedule: Q01DX009 (ip), vehicle: Klucel (hydroxypropylcellulose) (HPC) 100 % of control | dose: 40.0 mg/kg/injection, schedule: Q01DX009 (ip), vehicle: Klucel (hydroxypropylcellulose) (HPC) 104 % of control

O=S1(=O)c2ccccc2N(c2ccccc2)c2nccn21
inactive: dose: 100.0 mg/kg/injection, schedule: Q01DX001 (ip), vehicle: saline with Tween-80 101 % of control | dose: 200.0 mg/kg/injection, schedule: Q01DX001 (ip), vehicle: saline with Tween-80 98 % of control | dose: 400.0 mg/kg/injection, schedule: Q01DX001 (ip), vehicle: saline with Tween-80 92 % of control

O=C(O)/C=C/c1ccc([N+](=O)[O-])o1
inactive: [1] 107 % of control and 117 % of control | [2] 120 % of control

N#CC(C(=O)C(=O)Nc1ccccc1)c1c(Cl)cccc1Cl (centres undefined)
inactive: [3] 98 % of control | [4] 104 % of control | dose: 240.0 mg/kg/injection, schedule: Q01DX005 (ip), vehicle: saline with Tween-80 98 % of control

CCOC(=C\C=C\C1=[N+](C)c2ccccc2C1(C)C)/C=C/C=C1/N(C)c2ccccc2C1(C)C
inactive: dose: 1.56 mg/kg/injection, schedule: Q01DX009 (ip), vehicle: saline with Tween-80 117 % of control | dose: 3.13 mg/kg/injection, schedule: Q01DX009 (ip), vehicle: saline with Tween-80 114 % of control

COc1cc(OC)c(NC(=O)Oc2cc(C)c(Br)c(C)c2)cc1Cl
inactive: dose: 50.0 mg/kg/injection, schedule: Q01DX009 (ip), vehicle: saline with Tween-80 91 % of control | dose: 100.0 mg/kg/injection, schedule: Q01DX009 (ip), vehicle: saline with Tween-80 95 % of control | dose: 200.0 mg/kg/injection, schedule: Q01DX009 (ip), vehicle: saline with Tween-80 108 % of control

CCCN(CCC)CC(C)O (centres undefined)
inactive: dose: 25.0 mg/kg/injection, schedule: Q01DX009 (ip), vehicle: saline 95 % of control | dose: 50.0 mg/kg/injection, schedule: Q01DX009 (ip), vehicle: saline 100 % of control | dose: 100.0 mg/kg/injection, schedule: Q01DX009 (ip), vehicle: saline 95 % of control

CC(/C(=N/O)c1ccccc1)N1C(=O)c2ccccc2C1=O (centres undefined)
inactive: [5] 100 % of control | [6] 99 % of control | [7] 96 % of control

COC(=O)c1nc(N)nc(C(=O)OC)c1C(=O)c1cccs1
inactive: [3] 98 % of control | [4] 99 % of control

COC(=O)c1ccc(-c2cc(Cl)c3cc(S(=O)(=O)F)ccc3n2)cc1
inactive: dose: 100.0 mg/kg/injection, schedule: Q04DX003 (ip), vehicle: saline with Tween-80 95 % of control | dose: 200.0 mg/kg/injection, schedule: Q04DX003 (ip), vehicle: saline with Tween-80 90 % of control | dose: 400.0 mg/kg/injection, schedule: Q04DX003 (ip), vehicle: saline with Tween-80 90 % of control

CCOC(=O)c1c(C)c2c(n1C)CCc1cn[nH]c1-2
inactive: [1] 99 % of control | [2] 105 % of control | [8] 107 % of control | [9] 107 % of control | dose: 400.0 mg/kg/injection, schedule: Q01DX009 (ip), vehicle: Klucel (hydroxypropylcellulose) (HPC) 98 % of control | dose: 600.0 mg/kg/injection, schedule: Q01DX009 (ip), vehicle: Klucel (hydroxypropylcellulose) (HPC) 98 % of control

CC1=C2C3OC(=O)C(C)C3CCC2(C)C=C(Cl)C1=O (centres undefined)
inactive: [5] 111 % of control | [6] 98 % of control | [7] 101 % of control

COC(=O)C(Cc1ccccc1)NC(=O)C(Cc1c[nH]c2ccccc12)NC(=O)OC(C)(C)C (centres undefined)
inactive: [2] 95 % of control | [8] 87 % of control | [9] 108 % of control

From PubChem BioAssay AID330 (DTP/NCI, 2004)
